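Method: 48-hour compound exposure of cells in 96-well plates, five concentrations, linear interpolation of endpoints. GI50 = concentration required for 50% inhibition of growth.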 Active and inactive are the calls of the source. Cut-off read from the data, not from the text of the source: active = GI50 up to about 1.1 µM and inactive = higher.
Legend:
Test in all cases: NCI anticancer screen, dose series, 48 h
A498 = tested on: A498
CAKI-1 = tested on: CAKI-1
DU-145 = tested on: DU-145
HCC 2998 = tested on: HCC 2998
HCT-15 = tested on: HCT-15
HL-60 = tested on: HL-60
HOP-92 = tested on: HOP-92
Hs-578T = tested on: Hs-578T
MDA-MB-231 = tested on: MDA-MB-231
Malme-3M = tested on: Malme-3M
NCI-H522 = tested on: NCI-H522
OVCAR-4 = tested on: OVCAR-4
OVCAR-5 = tested on: OVCAR-5
OVCAR-8 = tested on: OVCAR-8
RPMI-8226 = tested on: RPMI-8226
SF-295 = tested on: SF-295
SK-MEL-28 = tested on: SK-MEL-28
SN12C = tested on: SN12C
SNB-75 = tested on: SNB-75
UACC-257 = tested on: UACC-257

Question: CC(=O)OC[C@@H]1[C@H]2CC[C@]3(C)[C@@H](OC(C)=O)CC[C@H]3[C@@H]2CC[C@H]1C1(C)SCCS1 was tested. Which GI50 (A498) did it give?
Answer: The GI50 was > 25 µM (inactive).

Question: And the GI50 (CAKI-1)?
Answer: The GI50 was > 25 µM (inactive).

Question: And the GI50 (DU-145)?
Answer: Its GI50 is > 25 µM (inactive).

Question: What about the GI50 (HCC 2998) of the same molecule?
Answer: Its GI50 is > 25 µM (inactive).

Question: What about the GI50 (HCT-15) of the same molecule?
Answer: The GI50 was greater than 25 µM.

Question: What about the GI50 (HL-60) of the same molecule?
Answer: Its GI50 is > 25 µM (inactive).

Question: And the GI50 (HOP-92)?
Answer: Its GI50 is > 25 µM (inactive).

Question: And the GI50 (Hs-578T)?
Answer: The GI50 was > 25 µM (inactive).

Question: And the GI50 (MDA-MB-231)?
Answer: Its GI50 is > 25 µM (inactive).

Question: And the GI50 (Malme-3M)?
Answer: The GI50 was > 25 µM (inactive).

Question: And the GI50 (NCI-H522)?
Answer: The GI50 was > 25 µM (inactive).

Question: What about the GI50 (OVCAR-4) of the same molecule?
Answer: The GI50 was > 25 µM (inactive).

Question: And the GI50 (OVCAR-5)?
Answer: Its GI50 is > 25 µM (inactive).

Question: And the GI50 (OVCAR-8)?
Answer: The GI50 was > 25 µM (inactive).

Question: What about the GI50 (RPMI-8226) of the same molecule?
Answer: Its GI50 is > 25 µM (inactive).

Question: And the GI50 (SF-295)?
Answer: The GI50 was > 25 µM (inactive).

Question: What about the GI50 (SK-MEL-28) of the same molecule?
Answer: Its GI50 is > 25 µM (inactive).

Question: What about the GI50 (SN12C) of the same molecule?
Answer: The GI50 was > 25 µM (inactive).

Question: And the GI50 (SNB-75)?
Answer: The GI50 was > 25 µM (inactive).

Question: What about the GI50 (UACC-257) of the same molecule?
Answer: Its GI50 is > 25 µM (inactive).

Question: For COc1ccc(/C=C(\C(=C/c2ccc(OC)cc2)[N+](=O)[O-])[N+](=O)[O-])cc1, which GI50 (A498) is on record?
Answer: The GI50 was 30.3 µM (inactive).

Question: What about the GI50 (CAKI-1) of the same molecule?
Answer: The GI50 was 3.18 µM (inactive).

Question: What about the GI50 (DU-145) of the same molecule?
Answer: The GI50 was 12.1 µM (inactive).

Question: What about the GI50 (HCC 2998) of the same molecule?
Answer: The GI50 was 15.5 µM (inactive).

Question: And the GI50 (HCT-15)?
Answer: Its GI50 is 2.55 µM.

Question: And the GI50 (HL-60)?
Answer: The GI50 was 0.261 µM (active).

Question: What about the GI50 (HOP-92) of the same molecule?
Answer: Its GI50 is 3.84 µM (inactive).

Question: And the GI50 (Hs-578T)?
Answer: The GI50 was 4.18 µM (inactive).

Question: What about the GI50 (MDA-MB-231) of the same molecule?
Answer: The GI50 was 2.07 µM (inactive).

Question: What about the GI50 (Malme-3M) of the same molecule?
Answer: Its GI50 is 3.34 µM (inactive).

Question: What about the GI50 (NCI-H522) of the same molecule?
Answer: Its GI50 is 2.58 µM (inactive).

Question: And the GI50 (OVCAR-4)?
Answer: Its GI50 is 12.8 µM (inactive).

Question: What about the GI50 (OVCAR-5) of the same molecule?
Answer: Its GI50 is 10.3 µM (inactive).

Question: What about the GI50 (OVCAR-8) of the same molecule?
Answer: The GI50 was 2.03 µM (inactive).

Question: What about the GI50 (RPMI-8226) of the same molecule?
Answer: Its GI50 is 3.15 µM (inactive).

Question: And the GI50 (SF-295)?
Answer: Its GI50 is 14.3 µM (inactive).

Question: What about the GI50 (SK-MEL-28) of the same molecule?
Answer: Its GI50 is 2.31 µM (inactive).

Question: What about the GI50 (SN12C) of the same molecule?
Answer: The GI50 was 2.88 µM (inactive).

Question: And the GI50 (SNB-75)?
Answer: The GI50 was 26.1 µM (inactive).

Question: And the GI50 (UACC-257)?
Answer: Its GI50 is 5.22 µM (inactive).

Question: What does the source list for CC1(C#N)CC(C)(C)C(/C=C2/CC(C)(C)C(/C=C3/OC(=N)CC3(C)C)=N2)=N1 (stereo not given)?
Answer: GI50 (A498): 10.5 µM (inactive); GI50 (CAKI-1): 40 µM (inactive); GI50 (DU-145): 33.7 µM (inactive); GI50 (HCC 2998): 32.2 µM (inactive); GI50 (HCT-15): 17.9 µM; GI50 (HL-60): 21.9 µM (inactive); GI50 (HOP-92): 12 µM (inactive); GI50 (Hs-578T): 19.2 µM (inactive); GI50 (MDA-MB-231): 33.6 µM (inactive); GI50 (Malme-3M): 0.564 µM (active); GI50 (NCI-H522): 14.2 µM (inactive); GI50 (OVCAR-4): 20 µM (inactive); GI50 (OVCAR-5): 80.4 µM (inactive); GI50 (OVCAR-8): 22.9 µM (inactive); GI50 (RPMI-8226): 20 µM (inactive); GI50 (SF-295): 23.7 µM (inactive); GI50 (SK-MEL-28): 51.9 µM (inactive); GI50 (SN12C): 31.9 µM (inactive); GI50 (SNB-75): 31 µM (inactive); GI50 (UACC-257): 18.8 µM (inactive)

From ChEMBL document CHEMBL1201862, “PubChem BioAssay data set” (2004)
